Measured values as given in patent publication US20260207602A1, “EGFR INHIBITORS” (Blueprint Medicines Corporation, priority 2022, published 2026).

Tests used:
EGFR L858R = target: T1, EGFR L858R (Homo sapiens, UniProt P00533, L858R); assay: Biochemical EGFR inhibition assay (Caliper mobility shift), EGFR L858R; conditions: biochemical Caliper mobility shift assay, EGFR L858R enzyme; read-out: Enz EGFR L858R IC50
T1 construct: purchased SignalChem E10-122BG
Experimental: (§1) Inhibitory effects of the compounds of the disclosure were measured in biochemical assays that measure the phosphorylation activity of EGFR enzyme phosphorylates 2.5 micromolar 5-FAM-[…]-CONH2 peptide substrate (ProfilerPro Kinase Peptide Substrate 22, PerkinElmer, Part #760366) in the presence of adenosine-5′-triphosphate (ATP) and varying concentrations of the test compound in 100 mM 2-[4-(2-hydroxyethyl)piperazin-1-yl]ethanesulfonic acid (HEPES), pH 7.5, 10 mM MgCl2, 0.015% Brij-35, 1 mM dithiothreitol (DTT), 1.0% dimehylsulfoxide (DMSO). Assays were performed at 1.0 mM ATP or at ATP Km of the EGFR enzymes. Reactions proceeded until between 10% to 20% total peptides were phosphorylated at room temperature (25° C.) and were terminated with 35 mM 2,2′,2″,2′″-(ethane-1,2-diyldinitrilo)tetraacetic acid (EDTA). Product was detected using the Caliper mobility shift detection method where the phosphorylated peptide (product) and substrate were electrophoretically separated and measured. Percent activity was plotted against log concentration of compound and points to generate an apparent IC50. The following enzyme forms of • EGFR were examples that were used in these assays: • EGFR WT (SignalChem, E10-112G) • EGFR L858R (SignalChem, E10-122BG) • EGFR (d746-750) (SignalChem, E10-122JG) • EGFR L858R C797S (SignalChem, E10-122ZG) • EGFR (d746-750) C797S (SignalChem, E10-122TG)

EGFR (d746-750) = target: T2, EGFR (d746-750) (Homo sapiens, UniProt P00533, DEL746-750); assay: Biochemical EGFR inhibition assay (Caliper mobility shift), EGFR (d746-750); conditions: biochemical Caliper mobility shift assay, EGFR Exon 19-del enzyme; read-out: Enz EGFR Exon 19-del IC50
T2 construct: purchased SignalChem E10-122JG
Experimental: as §1

[1] = target: intracellular phosphorylation of EGFR (Tyr1068) in PC-9 cells (Homo sapiens, UniProt P00533, DEL746-750); assay: PC-9 pEGFR AlphaLISA assay; type: cell-based; conditions: 4 hours incubation, read-out: Phos EGFR PC9 IC50
Experimental: PC-9/A431 pEGFR AlphaLISA Assays
Inhibitory effects of compounds were evaluated in cellular assays that measure level of intracellular phosphorylation of EGFR in PC-9 (ECACC, #90071810, Milipore/Sigma) and A431 cell lines (ATCC, CRL-1555) using AlphaLISA sureFire ultra p-EGFR (Tyr1068) assay kit (PerkinElmer, ALSU-PEGFR-A50K). PC-9 cells were seeded at 3.125×10^5 cells/ml in 40 μL phenol-free DMEM supplemented with 10% FBS per well of a 384 well plate (Corning, 3764), while A431 were seeded at […] in 40 μL in phenol-free DMEM with 0.5% FBS. Cells were allowed to adhere overnight at 37° C./5% CO2. On the next day, compounds were transferred at 4-fold, 10-point serial dilution from compound source plate to cell plates using liquid handler Echo550 and were incubated at 37° C./5% CO2 for 4 hours. A431 cells were stimulated prior harvesting for 10 min with EGF at final concentration of 30 ng/ml in the incubator. Medium was removed from the plates and cells were lysed with 10 μL of 1× AlphaLISA lysis buffer (supplemented with 1× protease/phosphatase inhibitor cocktail) followed by shaking at 600 rpm for 30 minutes at room temperature. Lysates were transferred to Optiplate (Apricot designs) and 5 ul of 1× acceptor bead mix (prepared just before use) was added to each well followed by incubation at room temperature for 1.5-2 h in dark. Then 5 μL of freshly-made donor bead mix is added to each well under subdued lighting or green filters, was mixed well on the shaker and the plate was sealed and left for an overnight incubation at room temperature in dark. On the next day, the plate was read the Envision using standard AlphaLisa settings. Percent of pEGFR inhibition was plotted against log concentration of compounds to generate IC50 values.

T2 sequence (P00533 with tags, fused parts or gaps DEL746-750 limits assumed): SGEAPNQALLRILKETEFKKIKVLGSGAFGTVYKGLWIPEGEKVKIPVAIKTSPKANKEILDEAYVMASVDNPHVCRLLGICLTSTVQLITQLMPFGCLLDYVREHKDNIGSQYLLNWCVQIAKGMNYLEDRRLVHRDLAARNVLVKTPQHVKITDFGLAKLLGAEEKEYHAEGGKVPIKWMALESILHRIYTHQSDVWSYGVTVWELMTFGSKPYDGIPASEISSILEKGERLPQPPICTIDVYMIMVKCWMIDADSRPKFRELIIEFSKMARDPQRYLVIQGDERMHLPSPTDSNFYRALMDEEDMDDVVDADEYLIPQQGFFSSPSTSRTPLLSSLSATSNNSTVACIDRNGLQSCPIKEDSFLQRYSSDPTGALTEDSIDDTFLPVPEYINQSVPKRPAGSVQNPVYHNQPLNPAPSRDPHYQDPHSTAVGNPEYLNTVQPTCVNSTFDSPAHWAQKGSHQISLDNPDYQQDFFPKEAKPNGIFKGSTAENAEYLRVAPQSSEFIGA
T1 sequence (P00533 25-1210 L858R): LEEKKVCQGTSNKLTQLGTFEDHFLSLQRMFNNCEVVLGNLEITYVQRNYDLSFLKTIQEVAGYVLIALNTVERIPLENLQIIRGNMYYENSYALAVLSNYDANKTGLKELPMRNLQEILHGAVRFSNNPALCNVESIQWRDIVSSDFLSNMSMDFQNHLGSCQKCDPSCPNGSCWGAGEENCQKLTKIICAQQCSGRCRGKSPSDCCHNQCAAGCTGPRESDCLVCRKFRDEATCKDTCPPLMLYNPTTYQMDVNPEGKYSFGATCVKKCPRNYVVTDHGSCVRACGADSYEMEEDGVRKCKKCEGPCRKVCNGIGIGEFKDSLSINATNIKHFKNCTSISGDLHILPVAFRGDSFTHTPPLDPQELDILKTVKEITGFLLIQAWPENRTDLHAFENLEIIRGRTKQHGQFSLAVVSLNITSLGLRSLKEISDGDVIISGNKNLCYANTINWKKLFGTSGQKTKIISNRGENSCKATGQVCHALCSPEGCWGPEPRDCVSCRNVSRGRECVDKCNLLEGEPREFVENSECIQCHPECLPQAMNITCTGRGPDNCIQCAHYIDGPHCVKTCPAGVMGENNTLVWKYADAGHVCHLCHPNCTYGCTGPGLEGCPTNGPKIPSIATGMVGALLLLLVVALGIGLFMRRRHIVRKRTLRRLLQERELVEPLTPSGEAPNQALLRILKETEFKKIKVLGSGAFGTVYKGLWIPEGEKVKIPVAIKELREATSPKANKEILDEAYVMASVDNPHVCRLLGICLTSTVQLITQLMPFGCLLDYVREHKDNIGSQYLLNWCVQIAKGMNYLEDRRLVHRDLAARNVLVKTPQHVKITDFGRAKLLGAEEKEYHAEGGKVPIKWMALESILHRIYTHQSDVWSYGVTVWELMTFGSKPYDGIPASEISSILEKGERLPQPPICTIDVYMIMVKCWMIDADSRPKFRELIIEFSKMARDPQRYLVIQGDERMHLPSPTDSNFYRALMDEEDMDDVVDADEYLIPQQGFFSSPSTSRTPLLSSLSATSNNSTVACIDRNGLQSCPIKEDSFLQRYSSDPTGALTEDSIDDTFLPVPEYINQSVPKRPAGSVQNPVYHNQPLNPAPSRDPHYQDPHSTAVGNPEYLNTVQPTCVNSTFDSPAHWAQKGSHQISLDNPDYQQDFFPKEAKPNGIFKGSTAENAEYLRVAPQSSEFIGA
Chain of intracellular phosphorylation of EGFR (Tyr1068) in PC-9 cells (P00533 with tags, fused parts or gaps DEL746-750): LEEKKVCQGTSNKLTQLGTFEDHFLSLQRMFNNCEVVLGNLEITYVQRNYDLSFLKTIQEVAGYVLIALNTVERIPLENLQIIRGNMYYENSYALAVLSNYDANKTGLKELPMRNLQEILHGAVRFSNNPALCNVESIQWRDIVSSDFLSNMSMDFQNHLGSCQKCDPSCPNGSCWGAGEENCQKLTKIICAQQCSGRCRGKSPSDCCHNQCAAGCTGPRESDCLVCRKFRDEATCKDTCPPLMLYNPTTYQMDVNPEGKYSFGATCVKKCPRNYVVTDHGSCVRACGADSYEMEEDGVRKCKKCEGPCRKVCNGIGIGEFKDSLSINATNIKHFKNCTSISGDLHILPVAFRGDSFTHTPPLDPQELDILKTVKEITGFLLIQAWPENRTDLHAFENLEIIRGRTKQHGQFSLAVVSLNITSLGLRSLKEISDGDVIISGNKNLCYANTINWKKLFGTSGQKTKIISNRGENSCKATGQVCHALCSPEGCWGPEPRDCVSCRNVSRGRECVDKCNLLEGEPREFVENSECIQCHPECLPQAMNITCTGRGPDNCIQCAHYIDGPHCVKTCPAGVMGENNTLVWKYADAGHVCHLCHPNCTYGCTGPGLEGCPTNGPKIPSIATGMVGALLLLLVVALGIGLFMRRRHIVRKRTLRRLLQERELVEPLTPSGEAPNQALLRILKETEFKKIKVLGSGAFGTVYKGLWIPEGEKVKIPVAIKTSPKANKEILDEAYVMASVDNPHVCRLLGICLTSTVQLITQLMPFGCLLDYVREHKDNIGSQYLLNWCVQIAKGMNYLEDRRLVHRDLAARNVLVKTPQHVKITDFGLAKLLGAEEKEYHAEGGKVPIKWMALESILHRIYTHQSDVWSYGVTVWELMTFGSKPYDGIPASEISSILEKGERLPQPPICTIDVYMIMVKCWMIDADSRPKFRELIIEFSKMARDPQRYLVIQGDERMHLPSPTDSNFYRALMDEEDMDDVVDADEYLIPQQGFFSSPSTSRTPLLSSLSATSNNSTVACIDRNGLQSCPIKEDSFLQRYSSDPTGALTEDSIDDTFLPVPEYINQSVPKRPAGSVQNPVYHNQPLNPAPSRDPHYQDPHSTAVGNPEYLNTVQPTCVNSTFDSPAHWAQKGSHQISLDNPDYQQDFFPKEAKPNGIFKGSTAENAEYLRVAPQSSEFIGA

Row | SMILES | IC50 (EGFR L858R) [nM] | IC50 (EGFR (d746-750)) [nM] | IC50 [1] [nM]
1 | COc1cn(C)nc1-c1cc(O[C@H](C)C2COC2)c2c(Nc3ccc4ncsc4c3F)ncnc2c1 (single isomer, unassigned) [Example 81] | ≤ 10 | ≤ 10 | 10.1 to 50
2 | CN(C)[C@H]1CC[C@H]1Oc1cc(-c2cnn(C)c2)cc2ncnc(Nc3ccc4ncsc4c3)c12 (racemic) [Example A50, N-(5-((1R,2S)-2-(dimethylamino)cyclobutoxy)-7-(1-methyl-1H-pyrazol-4-yl)quinazolin-4-yl)benzo[d]thiazol-6-amine] | ≤ 10 | ≤ 10 | ≤ 10
3 | CN1CC[C@@](C)(COc2cc(-c3cnn(C)c3)cc3ncnc(Nc4ccc5ncsc5c4)c23)C1=O (single isomer, unassigned) [Example 56] | ≤ 10 |  | 10.1 to 50
4 | COc1cc2c(Nc3ccc4ncsc4c3F)ncnc2cc1-c1cnn(C)c1 [Example 265, 7-fluoro-N-(6-methoxy-7-(1-methyl-1H-pyrazol-4-yl)quinazolin-4-yl)benzo[d]thiazol-6-amine] | ≤ 10 |  | ≤ 10
5 | CN1CCN(C(=O)Oc2cc(OC3CCOCC3)c3c(Nc4ccc5ncsc5c4)ncnc3c2)CC1 [Example A11, 4-[(1,3-benzothiazol-6-yl)amino]-5-(oxan-4-yloxy)quinazolin-7-yl 4-methylpiperazine-1-carboxylate] | > 50.1 | 10.1 to 50 | 
6 | COC[C@H](C)Oc1cc(N2CCN(C)CC2)cc2ncnc(Nc3ccc4ncsc4c3)c12 (single isomer, unassigned) [Example 206] | ≤ 10 |  | 10.1 to 50
7 | COc1cc(-c2cc(OC3CCOCC3)c3c(Nc4ccc5ncsc5c4)ncnc3c2)n(C)n1 [Example 256, N-(7-(3-methoxy-1-methyl-1H-pyrazol-5-yl)-5-((tetrahydro-2H-pyran-4-yl)oxy)quinazolin-4-yl)benzo[d]thiazol-6-amine] | > 50.1 | > 50.1 | 
8 | COc1nn(C)cc1-c1cc(O[C@H](C)C2COC2)c2c(Nc3ccc4ncsc4c3)ncnc2c1 (single isomer, unassigned) [Example 171] | ≤ 10 |  | 
9 | CN1CC[C@H](Oc2cc(-c3cnn(C)c3)cc3ncnc(Nc4ccc5ncsc5c4F)c23)C1 [Example 16, (S)-7-fluoro-N-(7-(1-methyl-1H-pyrazol-4-yl)-5-((1-methylpyrrolidin-3-yl)oxy)quinazolin-4-yl)benzo[d]thiazol-6-amine] | 10.1 to 50 |  | 
10 | COC[C@H](C)Oc1cc(N2CCN(C(C)C)C2=O)cc2ncnc(Nc3ccc4ncsc4c3)c12 (single isomer, unassigned) [Example 119] | ≤ 10 |  | 
11 | Cn1cc(-c2cc(OCC3CCOC3)c3c(Nc4ccc5ncsc5c4)ncnc3c2)cn1 (single isomer, unassigned) [Example 42] | ≤ 10 |  | 10.1 to 50
12 | Cn1cc(-c2cc(O[C@@H]3CCOC[C@@H]3F)c3c(Nc4ccc5ncsc5c4)ncnc3c2)cn1 (single isomer, unassigned) [Example 44] | ≤ 10 |  | 10.1 to 50
13 | COc1nn(C2CCN(C)CC2)cc1-c1cc(F)c2c(Nc3ccc4ncsc4c3F)ncnc2c1 [Example 226, 7-fluoro-N-(5-fluoro-7-(3-methoxy-1-(1-methylpiperidin-4-yl)-1H-pyrazol-4-yl)quinazolin-4-yl)benzo[d]thiazol-6-amine] | > 50.1 | 10.1 to 50 | 
14 | C[C@@H](Oc1cc(-c2cnn(C)c2)cc2ncnc(Nc3ccc4ncsc4c3)c12)C(F)F (single isomer, unassigned) [Example 53] | ≤ 10 |  | 
15 | CN1CC[C@@H](Oc2cc(-c3cnn(C)c3)cc3ncnc(Nc4ccc5ncsc5c4F)c23)C1 [Example 4, (R)-7-fluoro-N-(7-(1-methyl-1H-pyrazol-4-yl)-5-((1-methylpyrrolidin-3-yl)oxy)quinazolin-4-yl)benzo[d]thiazol-6-amine] | 10.1 to 50 |  | 10.1 to 50
16 | C[C@@H](Oc1cc(-c2cnn(C)c2)cc2ncnc(Nc3ccc4ncsc4c3F)c12)C(=O)N(C)C (single isomer, unassigned) [Example 280] | ≤ 10 |  | 

Other lines, results leading:

Row | IC50 (EGFR L858R) [nM] | IC50 (EGFR (d746-750)) [nM] | IC50 [1] [nM] | SMILES
17 | ≤ 10 | ≤ 10 | 10.1 to 50 | Cn1cc(-c2cc(OCC#N)c3c(Nc4ccc5ncsc5c4)ncnc3c2)cn1 [Example 407, 2-((4-(benzo[d]thiazol-6-ylamino)-7-(1-methyl-1H-pyrazol-4-yl)quinazolin-5-yl)oxy)acetonitrile]
18 | 10.1 to 50 | ≤ 10 | ≤ 10 | Cn1cc(-c2cc(O[C@H]3CCNC[C@H]3F)c3c(Nc4ccc5ncsc5c4)ncnc3c2)c(OC(F)F)n1 [Example 366, N-(7-(3-(difluoromethoxy)-1-methyl-1H-pyrazol-4-yl)-5-(((3R,4S)-3-fluoropiperidin-4-yl)oxy)quinazolin-4-yl)benzo[d]thiazol-6-amine]
19 | ≤ 10 | ≤ 10 |  | COc1cc2ncnc(Nc3ccc4ncsc4c3)c2cc1N[C@@H]1CCN(C)C[C@H]1F [Example 301, N4-(benzo[d]thiazol-6-yl)-N6-((3R,4R)-3-fluoro-1-methylpiperidin-4-yl)-7-methoxyquinazoline-4,6-diamine]
20 | ≤ 10 |  | 10.1 to 50 | Cn1cc(-c2cc(O[C@@H]3C[C@@H](O)[C@@H](O)C3)c3c(Nc4ccc5ncsc5c4)ncnc3c2)cn1 (single isomer, unassigned) [Example A23]
21 | ≤ 10 |  | 10.1 to 50 | CN1CC[C@H](Oc2cc(-c3cnn(C)c3)cc3ncnc(Nc4ccc5ncsc5c4)c23)[C@@H](O)C1 (single isomer, unassigned) [Example A36]
22 | 10.1 to 50 | ≤ 10 |  | C[C@H]1[C@H](Oc2cc(-c3cnn(C)c3)cc3ncnc(Nc4ccc5ncsc5c4)c23)CN1C (single isomer, unassigned) [Example 322]
23 | ≤ 10 |  | 10.1 to 50 | C[C@H](CO)Oc1cc(N2CCN(C)CC2)cc2ncnc(Nc3ccc4ncsc4c3)c12 (single isomer, unassigned) [Example 294]
24 | ≤ 10 |  | 10.1 to 50 | CN1C[C@H](F)[C@H](Oc2cc(-c3cnn(C)c3)cc3ncnc(Nc4ccc5ncsc5c4)c23)C1 (single isomer, unassigned) [Example 381]
25 | ≤ 10 |  | 10.1 to 50 | CO[C@@H]1CN(C)CC[C@H]1Oc1cc(-c2cnn(C)c2)cc2ncnc(Nc3ccc4ncsc4c3)c12 (single isomer, unassigned) [Example A44]
26 | > 50.1 | > 50.1 |  | CN1CCN(c2cc(OC3CCOCC3)c3c(Nc4ccc5ncsc5c4)ncnc3c2)CC1(C)C [Example A58, N-(5-((tetrahydro-2H-pyran-4-yl)oxy)-7-(3,3,4-trimethylpiperazin-1-yl)quinazolin-4-yl)benzo[d]thiazol-6-amine]
27 | ≤ 10 |  |  | CN1C[C@H](F)C[C@H](Oc2cc(-c3cnn(C)c3)cc3ncnc(Nc4ccc5ncsc5c4)c23)C1 (single isomer, unassigned) [Example 337]
28 | ≤ 10 |  |  | COc1nn(C)cc1-c1cc(O[C@@H](C)C(=O)N(C)C)c2c(Nc3ccc4ncsc4c3F)ncnc2c1 (single isomer, unassigned) [Example 288]
29 | ≤ 10 |  |  | Cn1cc(-c2cc(O[C@@H]3CC[C@@H]3O)c3c(Nc4ccc5ncsc5c4)ncnc3c2)cn1 (single isomer, unassigned) [Example A52]
30 | ≤ 10 |  |  | CN1CC[C@H](Oc2cc(-c3cnn(C)c3)cc3ncnc(Nc4ccc5ncsc5c4)c23)[C@@H](F)C1 (single isomer, unassigned) [Example 345]
